The subject of test [1] is human OCI-AML-3 (AML) mouse xenograft tumor. Description: Human OCI-AML-3 AML mouse xenograft tumor model. Format: in vivo. The settings on record: for antitumor effect in words: 11 days of administration, Compound 6 25 or 100 mg/kg qd, APG-115 100 mg/kg (d1-d4) and 50 mg/kg (d5-d11) q2d. The source says:
(§1) A subcutaneous xenograft tumor model of human tumor immunodeficient mice was established by cell inoculation (see: Gould S E et al. Translational value of mouse models in oncology drug development. Nature medicine. 2015 21, 431-439; and, Souers A J et al. ABT-199, a potent and selective BCL-2 inhibitor, achieves antitumor activity while sparing platelets. Nature medicine. 2012 19.202-208): tumor cells in logarithmic growth phase were collected, counted and resuspended in 1×PBS, and the cell suspension concentration was adjusted to 2.5-5×10^7/mL. Using a 1 mL syringe ([…]), the tumor cells were inoculated subcutaneously in the right side of immunodeficient mice, 5-10×106/0.2 mL/mouse (experimental animals were purchased from Beijing Vital River Laboratory Animal Technology Co., Ltd. SCXK (Beijing) 2016-0006). All animal experiments were strictly in accordance with the laboratory animal use and management practices of GenePharma Co., Ltd. and Ascentage Pharma Group Co., Ltd. The calculation of relevant parameters referred to the Chinese CFDA “Guidelines for Non-Clinical Research Techniques of Cytotoxic Antitumor Drugs”.
(§2) Animal body weight and tumor size were measured twice a week during the experiment. The conditions and death of the animals were observed every day. Routine monitoring included the effects of tumor growth and treatment on normal animal behaviors, including activity, feeding and drinking situations, weight gain or loss, eyes, coat and other abnormalities in the experimental animals. The deaths and clinical symptoms observed during the experiment were recorded in the raw data. The entire operations of administration, measurement of mouse body weight and tumor volume were performed in a clean bench. Plasma and tumor tissues were collected, weighed and photographed after the end of the last administration according to the experimental protocol. Plasma and tumor samples were frozen and stored at −80° C.
(§3) Tumor volume (TV) was calculated as: TV=a×b2/2, in which a and b represented the length and width of the tumor as measured, respectively. The relative tumor volume (RTV) was calculated as: RTV=Vt/V1, in which V1 was the tumor volume at the time of grouping and administration, and Vt was the tumor volume measured on a day after administration. The evaluation index of anti-tumor activity was the relative tumor proliferation rate T/C (%), which was calculated as: relative tumor proliferation rate T/C (%)=(TRTV/CRTV)×100%, in which TRTV was the RTV of the treatment group, CRTV was the RTV of the vehicle control group; tumor remission rate (%) was calculated as: (the number of SD (stable disease), PR (tumor partial regression) and CR (tumor complete regression) in the tumor-bearing mice after treatment)/the total number of mice in the group×100%. Change of body weight %=(measured body weight−body weight at the time of grouping)/body weight at the time of grouping×100%.
(§4) The synergistic analysis was performed by the following formula (Gould S E et al. Translational value of mouse models in oncology drug development. Nature medicine. 2015 21, 431-439): synergy factor=((A/C)×(B/C))/(AB/C); A=RTV value of the group administered with A only; B═RTV value of the group administered with B only; C=RTV value of the vehicle control group; AB=RTV value of the group administered with A and B in combination (Clarke R. Issues in experimental design and endpoint analysis in the study of experimental cytotoxic agents in vivo in breast cancer and other models [J]. Breast Cancer Research & Treatment, 1997, 46(2-3): 255-278).
(1) The experimental method was as described in Section (2) of Example 1. […] Therefore, a mouse xenograft tumor model was further established using the OCI-AML-3 tumor cell line to evaluate the in vivo anti-tumor effects of Compound 6 and APG-115. […]

Test [2] deals with human RS4;11 (ALL) mouse xenograft tumor. In words: Human RS4;11 ALL mouse xenograft tumor model. The settings on record: for antitumor effect in words: 21 days of administration, Compound 6 50 mg/kg qd alone (12.5 or 50 mg/kg in combination), APG-115 50 mg/kg q2d; for CR (tumor complete regression), mice per group, day 21 after administration / PR (tumor partial regression), mice per group, day 21 after administration / RTV on day 21 after administration (mean ± standard error) / T/C (%) on day 21 after administration / Tumor remission rate % on day 21 after administration: Compound 6 50 mg/kg qd and/or APG-115 50 mg/kg q2d; for Tumor remission rate % on day 21 after administration: remission including CR, PR, and SD. Format: in vivo.
Source text: as §1, §2, §3, §4
(1) The experimental method was as described in Section (2) of Example 1. RS4;11 carried wild-type p53 and was an ideal model for evaluating the anti-tumor effect of MDM2 inhibitors. […]
In general terms: Xenograft models place foreign cells or tissue in a host animal.

Test [3] relates to MV-4-11 (acute myeloid leukemia (AML)). Description: CellTiter-Glo (CTG) cell proliferation assay, MV-4-11. The class given is cell-based. Conditions: Homo sapiens, MV4-11; MV-4-11, single agent alone, 24 hours; read-out: IC50 for inhibition of proliferation. As for the experimental part: Anti-proliferative effects were tested by CellTiter-Glo® (CTG) assay. Cells were seeded in 96-well plates and treated with different concentrations of test substance for 24 hours. […] Each test dose was tested with 3 replicate wells. Usually, 9 series of doses of the test substance were selected, and added to 96-well plates, 5 μl/well. For the combination experiment, the final volume of the two test substances was 5 μl/well. Each test dose was tested with 3 replicate wells. On the same plate, 3-6 wells were selected and added with 100 μl of dilution solution as a control group, and another 3-6 wells were used as a blank control. […] After mixing on a shaker for 2 minutes, leaving at room temperature for 10 minutes, the fluorescence value was read by using a Biotek synergy HIMF plate reader. […] For the combination test, the cell viability was calculated by normalizing the average OD value of 3 duplicate wells of the single drug control. […] Cell viability (%) values of Compound 6 alone and the combination of Compound 6 and APG-115 in the following malignant tumor cells were determined in the CTG experiment: OCI-AML-3 (acute myeloid leukemia (AML)), MV-4-11 (acute myeloid leukemia (AML)), KMS-26 (multiple myeloma (MM)), KMS-11 (multiple myeloma (MM)).
For orientation: ATP-based viability assays read luminescence as a measure of living cells.

Setting [4] is: APG-115 50 mg/kg alone (text: 100 mg/kg d1-d4, 50 mg/kg d5-d11, q2d).
The mark [5] stands for this setting: Compound 6 25 mg/kg qd, alone or with APG-115 50 mg/kg.
Setting [6] is: Compound 6 100 mg/kg qd, alone or with APG-115 50 mg/kg.

For `CCN1[C@@H](C(=O)NC23CCC(C(=O)O)(CC2)CC3)[C@H](c2cccc(Cl)c2F)[C@]2(C(=O)Nc3cc(Cl)ccc32)C12CCCCC2` [APG-115], the “antitumor effect in words” value in test [1] is “did not exhibit tumor growth inhibition”. Further, in test [1] (setting [4]), the “RTV on day 11 after administration” value was found to be 12.5 ± 2.5 and the “T/C (%) value on day 11 after administration” value (“T/C (%) value” below) was 69%. Moreover, in test [2], the “antitumor effect in words” value was “no tumor growth inhibition effect”; the “CR (tumor complete regression), mice per group, day 21 after administration” value is reported as 0/5; the “PR (tumor partial regression), mice per group, day 21 after administration” value was 0/5; the “RTV on day 21 after administration (mean ± standard error)” value turned out to be 11.1 ± 0.9. Also, in test [2], the “T/C (%) on day 21 after administration” value amounted to 106% and the “Tumor remission rate % on day 21 after administration” value was found to be 0%. For the same molecule, in test [3], the IC50 turned out to be 1960 nM.

As to `O=C(NS(=O)(=O)c1ccc(NC[C@H]2COCCO2)c([N+](=O)[O-])c1)c1ccc(N2CCN(CC3=C(c4ccc(Cl)cc4)CC4(CCC4)CC3)CC2)cc1Oc1cnc2[nH]ccc2c1` [Compound 6, (S)-N-((4-(((1,4-dioxan-2-yl)methyl)amino)-3-nitrophe-nyl)sulfonyl)-2-((1H-pyrrolo[2,3-b]pyridin-5-yl)oxy)-4-(4-((6-(4-chlorophenyl)spiro[3.5]non-6-en-7-yl)meth-yl)piperazin-1-yl)benzamide], the “antitumor effect in words” value in test [1] is on record as “did not exhibit tumor growth inhibition”. Further, in test [1] (setting [5]), the “RTV on day 11 after administration” value was found to be 16.2 ± 2.3 and the “T/C (%) value” value came to 90%. For the same molecule, in test [1] (setting [6]), the “RTV on day 11 after administration” value stood at 13.0 ± 1.9 and the “T/C (%) value” value was 72%. Besides, in test [2], the “antitumor effect in words” value is recorded as “excellent antitumor effect”; the “CR (tumor complete regression), mice per group, day 21 after administration” value is on record as 0/5; the “PR (tumor partial regression), mice per group, day 21 after administration” value was 1/5; the “RTV on day 21 after administration (mean ± standard error)” value stood at 1.8 ± 0.4. In test [2], the “T/C (%) on day 21 after administration” value turned out to be 17% and the “Tumor remission rate % on day 21 after administration” value is reported as 20%. Moreover, the IC50 in test [3] stood at 84.7 nM.

(Values after patent publication US11478469B2, “Combination product of BCL-2 inhibitor and MDM2 inhibitor and use thereof in the prevention and/or treatment of diseases” (ASCENTAGE PHARMA (SUZHOU) CO., LTD., priority 2018, dated 2022).)
